Tests used:
Assay type in all cases: in vivo
[1] = tested on: male mice fed a high fat diet; test: GBR versus bupropion in high fat diet mice (Example 11)
Experimental: The effect of increasing central dopamine neuronal activity versus increasing central dopamine plus norepinephirne neuronal activity on body fat, blood glucose, plasma insulin, and insulin sensitivity was studied in male mice fed a high fat diet from 4 weeks of age until 24 weeks of age. These mice were maintained on this high fat diet while treated with either GBR (20 mg/kg) (a selective dopamine reuptake inhibitor) or bupropion (20 mg/kg) (a dopamine and norepinpehrine reuptake inhibitor) at doses that approximate their 50% maximal effective dose for these functions in vivo in rodents.

[2] = tested on: female mice fed a high fat diet for 20 weeks; test: GBR 12909 and FA, alone and combined, 14 days in high fat diet mice (Example 9); conditions: GBR 12909 10 mg/kg, FA 15 mg/kg, FIG. 11
Experimental: Female mice at 4 weeks of age were fed a high fat diet for 20 weeks to induce diabetes and insulin resistance and continued on such diet while treated for 14 days with either GBR 12909 (10 mg/kg), FA (15 mg/kg), GBR 12909 (10 mg/kg) plus FA (15 mg/kg), or vehicle and sacrified after 14 days of treatment for the analyses of body fat, blood glucose, plasma insulin, and plasma nitric oxide levels. The composite of body fat store level, blood glucose and plasma insulin was reduced the greatest in the GBR/FA group and by a magnitude more than additive of the individual GBR and FA groups combined. Only the GBR/FA group normalized plasma insulin levels. […] This effect was not observed with either GBR or FA treatments alone. Also, there was no desensitization to this dopamine enhancing treatment on this body weight reduction effect as is observed with dopamine D2 receptor agonists (FIG. 15).

[3] = tested on: high fat fed, hypertensive SHR rats; test: Quinelorane and fusaric acid, alone and combined, in high fat fed hypertensive SHR rats (Example 5); conditions: SHR rats on high fat diet, Q 0.075 mg/kg, FA 12.5 mg/kg
Experimental: Male SHR rats were maintained on 14 hour daily photoperiods and fed a high fat diet (60% of energy from fat; 5.24 kcal/gram weight) for 3 weeks and then divided into different groups and treated with either quinelorane (Q; a dopamine D2/D3 mixed receptor agonist) (0.075 mg/kg), fusaric acid (FA; a dopamine beta hydroxylase inhibitor) (12.5 mg/kg), quinelorane (0.075 mg/kg) plus FA (Q/FA) (12.5 mg/kg), or vehicle at 13 hours after light onset for 17 days. The doses of Q and FA were set at less than half maximal to effect central dopamine receptor binding functions and dopamine beta hydroxylase activity, respectively. […] Blood pressure measurements were taken at 14 days of treatment and animals were sacrificed at 18 days of treatment for analyses of body fat and humoral factors and metabolites. […] Respecting blood glucose, although both Q and FA reduced glucose level relative to vehicle, only the Q/FA regimen normalized blood glucose in these animals relative to vehicle (FIG. 6).

[4] = tested on: obese, diabetic female ob/ob mice; test: Fusaric acid and SKF 38393, alone and combined, 14 days in ob/ob mice (Example 4); conditions: fusaric acid 15 mg/kg, SKF 38393 10 mg/kg, once daily 14 days, day 15, controls 380+/−30
Experimental: Fusaric acid is a dopamine beta hydroxylase inhibitor that reduces noradrenaline synthesis in noradrenergic neurons. It is not present in dopaminergic neurons and thus exerts no such effect there. SKF38393 is a post-synaptic dopamine D1 receptor agonist with no marked influence on noradrenergic neurons. A study was conducted to determine the interactive effects of fusaric acid plus SKF 38393 on body fat store levels, and blood glucose and plasma triglyceride levels in ob/ob mice. The ob/ob mouse is hyperphagic, obese, insulin resistant, diabeteic and dyslipidemic due to the absence of functional leptin as a result of a mutation in this gene.
Obese, diabetic female ob/ob mice (body weight of approximately 33 g) maintained on 14 hour daily photoperiods, housed one per cage and allowed to feed ad libitum were randomized to once daily treatment with either fusaric acid (15 mg/kg; n=6-8), SKF 38393 (10 mg/kg; n=6-8), both fusaric acid (15 mg/kg) and SKF 38393 (10 mg/kg) (n=6-8), or vehicle (control group; n=6-8) for a 14 day period. On the fifteenth day of the study and approximately 24 hours after the final treatment animals were sacrificed and blood samples were obtained for the analyses of blood glucose, plasma free fatty acid and triglyceride levels. […]

SMILES: Cl.Cl.Fc1ccc(C(OCCN2CCN(CCCc3ccccc3)CC2)c2ccc(F)cc2)cc1 [GBR 12909, 1-(2-[bis(4-Fluorophenyl)methoxy]ethyl)-4-(3-phenylpropyl)piperazine dihydrochloride]
- reducing plasma insulin ([1]; GBR 20 mg/kg versus bupropion 20 mg/kg, equal dose): much more effective
- body fat ([1]; GBR 20 mg/kg, compared to vehicle and bupropion 20 mg/kg, FIG. 17): significantly reduced
- blood glucose level [2]: no significant effect

SMILES: CCCN1CCC[C@@H]2Cc3nc(N)ncc3C[C@H]21 [Q]
- change from baseline body weight (weight loss) ([3]; at 13 hours after light onset for 17 days, FIGS. 1 and 2): regained weight loss to baseline values by treatment end

SMILES: Cl.Oc1cc2c(cc1O)C(c1ccccc1)CNCC2 (stereo not drawn) [SKF 38393, 1-phenyl-7,8-dihydroxy-2,3,4,5-tetrahydro-1H-3-benzazepine hydrochloride]
- blood glucose [4]: 290 ± 55 mg/dL

SMILES: CCCCc1ccc(C(=O)O)nc1 [fusaric acid, 5-butyl-2-pyridinecarboxylic acid]
- plasma C-reactive protein levels ([3]; 17 days, relative to vehicle): no significant effect

From US20130274246A1, “Therapeutic Treatment for Metabolic Syndrome, Type 2 Diabetes, Obesity, or Prediabetes” (priority 2010, published 2013)
